Data reported in PMC4522399 (Journal of pharmaceutical sciences, 2015).

How the values were obtained:
human NTCP = target: T1, human NTCP (Homo sapiens, UniProt Q14973); conditions: native substrate, comparison value; cited from earlier work
T1 sequence (Q14973 1-349): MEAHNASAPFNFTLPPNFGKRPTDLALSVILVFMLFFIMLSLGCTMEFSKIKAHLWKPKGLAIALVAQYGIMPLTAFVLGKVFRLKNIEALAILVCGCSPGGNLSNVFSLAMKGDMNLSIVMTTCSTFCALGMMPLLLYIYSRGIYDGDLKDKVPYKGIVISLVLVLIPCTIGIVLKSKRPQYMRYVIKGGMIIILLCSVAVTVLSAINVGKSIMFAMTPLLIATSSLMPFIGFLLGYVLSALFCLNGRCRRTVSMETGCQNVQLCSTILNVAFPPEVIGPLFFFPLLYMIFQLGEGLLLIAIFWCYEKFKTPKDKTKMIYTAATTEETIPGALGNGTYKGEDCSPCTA

in vivo = conditions: male, Balb/c, mouse, iv, 0.08 mmol/kg

Tmax (in vivo) [min] | SMILES | Kt (human NTCP) [µM]
 | C[C@H](CCC(=O)NCCS(=O)(=O)O)[C@H]1CC[C@H]2[C@@H]3[C@H](O)C[C@@H]4C[C@H](O)CC[C@]4(C)[C@H]3C[C@H](O)[C@]12C [taurocholate] | 22.7
30 | NC(=O)c1ncn([C@@H]2O[C@H](CO)[C@@H](O)[C@H]2O)n1 [ribavirin, Ribavirin] | 
